Measured values published in ChEMBL document CHEMBL3885861, “Open TG-GATES”.

Species on record: Rattus norvegicus
Test: Open TG-GATES - Regimen: Single
Assay type: toxicity, organism-based, Sprague-Dawley
Parameters: regimen Single, gender Male, age 6 weeks
Settings: in vivo, po, 100 mg/kg, route gavage, dose level Low; for APTT / Bas / Eos / Fbg / Hb / Ht / Lym / MCH / MCHC / MCV / Mono / Neu / PT / Plat / RBC / Ret / WBC: tissue Blood; for KIDNEY_L / KIDNEY_R / KIDNEY_TOTAL: tissue Kidney; for LIVER: tissue Liver; for A/G / ALP / ALT / AST / BUN / CRE / Ca / Cl / DBIL / GLC / IP / K / LDH / Na / PL / RALB / TBIL / TC / TG / TP / gamma-GTP: tissue Plasma

Structure (SMILES): CC(=O)Nc1ccc2c(c1)Cc1ccccc1-2 [2-ACETYLAMINOFLUORENE]
- TERMINAL_BW (3 h): 222.2 g
- APTT (3 h): 19.4 s
- Bas (3 h): 0.8%
- Eos (3 h): 1%
- Fbg (3 h): 228.6 mg/dL
- Hb (3 h): 14.1 g/dL
- Ht (3 h): 40.7%
- Lym (3 h): 76.4%
- MCH (3 h): 21.6 pg
- MCHC (3 h): 34.7%
- MCV (3 h): 62.3 fL
- Mono (3 h): 2%
- Neu (3 h): 19.2%
- PT (3 h): 11.6 s
- Plat (3 h): 114.3 x10_4/uL
- RBC (3 h): 653.2 x10_4/ul
- Ret (3 h): 7%
- WBC (3 h): 73.8 x10_2/uL
- KIDNEY_L (3 h): 1 g
- KIDNEY_R (3 h): 1 g
- KIDNEY_TOTAL (3 h): 2 g
- LIVER (3 h): 10.4 g
- A/G (3 h): 1.8
- ALP (3 h): 1019.4 IU/L
- ALT (3 h): 37.6 IU/L
- AST (3 h): 77 IU/L
- BUN (3 h): 13.2 mg/dL
- CRE (3 h): 0.4 mg/dL
- Ca (3 h): 10.7 mg/dL
- Cl (3 h): 103.4 meq/L
- DBIL (3 h): 0.07 mg/dL
- GLC (3 h): 212.8 mg/dL
- IP (3 h): 10.8 mg/dL
- K (3 h): 4 meq/L
- LDH (3 h): 203.8 IU/L
- Na (3 h): 141.4 meq/L
- PL (3 h): 151 mg/dL
- RALB (3 h): 3.6 g/dL
- TBIL (3 h): 0.1 mg/dL
- TC (3 h): 92.6 mg/dL
- TG (3 h): 45.8 mg/dL
- TP (3 h): 5.6 g/dL
- gamma-GTP (3 h): 1 IU/L
- TERMINAL_BW (6 h): 219.9 g
- APTT (6 h): 20.9 s
- Bas (6 h): 0.4%
- Eos (6 h): 1%
- Fbg (6 h): 221.6 mg/dL
- Hb (6 h): 13.9 g/dL
- Ht (6 h): 40.1%
- Lym (6 h): 81.6%
- MCH (6 h): 21.3 pg
- MCHC (6 h): 34.6%
- MCV (6 h): 61.5 fL
- Mono (6 h): 2.4%
- Neu (6 h): 14.2%
- PT (6 h): 12.2 s
- Plat (6 h): 132.9 x10_4/uL
- RBC (6 h): 652 x10_4/ul
- Ret (6 h): 7%
- WBC (6 h): 82.3 x10_2/uL
- KIDNEY_L (6 h): 1 g
- KIDNEY_R (6 h): 1 g
- KIDNEY_TOTAL (6 h): 2 g
- LIVER (6 h): 9.9 g
- A/G (6 h): 1.6
- ALP (6 h): 792.8 IU/L
- ALT (6 h): 31.6 IU/L
- AST (6 h): 70.6 IU/L
- BUN (6 h): 10 mg/dL
- CRE (6 h): 0.4 mg/dL
- Ca (6 h): 10.5 mg/dL
- Cl (6 h): 101.8 meq/L
- DBIL (6 h): 0.064 mg/dL
- GLC (6 h): 195.6 mg/dL
- IP (6 h): 9.4 mg/dL
- K (6 h): 4.1 meq/L
- LDH (6 h): 169 IU/L
- Na (6 h): 140.4 meq/L
- PL (6 h): 135.6 mg/dL
- RALB (6 h): 3.4 g/dL
- TBIL (6 h): 0.1 mg/dL
- TC (6 h): 79.2 mg/dL
- TG (6 h): 45.2 mg/dL
- TP (6 h): 5.6 g/dL
- gamma-GTP (6 h): 1 IU/L
- TERMINAL_BW (9 h): 218.6 g
- APTT (9 h): 19 s
- Bas (9 h): 0.6%
- Eos (9 h): 0.8%
- Fbg (9 h): 227.6 mg/dL
- Hb (9 h): 14.1 g/dL
- Ht (9 h): 40.8%
- Lym (9 h): 72.8%
- MCH (9 h): 21.4 pg
- MCHC (9 h): 34.5%
- MCV (9 h): 62.2 fL
- Mono (9 h): 3%
- Neu (9 h): 22%
- PT (9 h): 12.9 s
- Plat (9 h): 124.3 x10_4/uL
- RBC (9 h): 655 x10_4/ul
- Ret (9 h): 6.7%
- WBC (9 h): 79.5 x10_2/uL
- KIDNEY_L (9 h): 0.9 g
- KIDNEY_R (9 h): 0.9 g
- KIDNEY_TOTAL (9 h): 1.9 g
- LIVER (9 h): 9.5 g
- A/G (9 h): 1.5
- ALP (9 h): 754.8 IU/L
- ALT (9 h): 31 IU/L
- AST (9 h): 67.2 IU/L
- BUN (9 h): 10.8 mg/dL
- CRE (9 h): 0.4 mg/dL
- Ca (9 h): 10.5 mg/dL
- Cl (9 h): 104.2 meq/L
- DBIL (9 h): 0.064 mg/dL
- GLC (9 h): 211.2 mg/dL
- IP (9 h): 9.1 mg/dL
- K (9 h): 3.8 meq/L
- LDH (9 h): 230 IU/L
- Na (9 h): 141.2 meq/L
- PL (9 h): 124.8 mg/dL
- RALB (9 h): 3.4 g/dL
- TBIL (9 h): 0.1 mg/dL
- TC (9 h): 65 mg/dL
- TG (9 h): 56.8 mg/dL
- TP (9 h): 5.7 g/dL
- gamma-GTP (9 h): 1 IU/L
- TERMINAL_BW (24 h): 221.4 g
- APTT (24 h): 21.7 s
- Bas (24 h): 0.2%
- Eos (24 h): 1%
- Fbg (24 h): 215.6 mg/dL
- Hb (24 h): 14.6 g/dL
- Ht (24 h): 42%
- Lym (24 h): 76.8%
- MCH (24 h): 22.2 pg
- MCHC (24 h): 34.7%
- MCV (24 h): 63.8 fL
- Mono (24 h): 5%
- Neu (24 h): 16.6%
- PT (24 h): 14.5 s
- Plat (24 h): 140.8 x10_4/uL
- RBC (24 h): 658.2 x10_4/ul
- Ret (24 h): 6.5%
- WBC (24 h): 91.5 x10_2/uL
- KIDNEY_L (24 h): 1 g
- KIDNEY_R (24 h): 1 g
- KIDNEY_TOTAL (24 h): 2.1 g
- LIVER (24 h): 11.2 g
- A/G (24 h): 1.8
- ALP (24 h): 1020 IU/L
- ALT (24 h): 37.8 IU/L
- AST (24 h): 74 IU/L
- BUN (24 h): 17.2 mg/dL
- CRE (24 h): 0.4 mg/dL
- Ca (24 h): 10.4 mg/dL
- Cl (24 h): 105.4 meq/L
- DBIL (24 h): 0.1 mg/dL
- GLC (24 h): 187.8 mg/dL
- IP (24 h): 8.4 mg/dL
- K (24 h): 4.6 meq/L
- LDH (24 h): 207.4 IU/L
- Na (24 h): 140.6 meq/L
- PL (24 h): 120.8 mg/dL
- RALB (24 h): 3.3 g/dL
- TBIL (24 h): 0.2 mg/dL
- TC (24 h): 52 mg/dL
- TG (24 h): 120.6 mg/dL
- TP (24 h): 5.1 g/dL
- gamma-GTP (24 h): 1.4 IU/L
